Assay [1] deals with T1, CDK9 (Homo sapiens, UniProt P50750).
T1 construct: NCIH211 cells with endogenously tagged N-terminal CDK9-HiBit; endogenous in cells; host or cells: NCIH211 cells (endogenous CDK9 locus tagged with HiBit)
The assay is described as follows: CDK9 degradation by HiBit assay, NCIH211 cells. Conditions: NCIH211 cells with endogenously tagged N-terminal CDK9-HiBit, 24 hours incubation; read-out: HiBit-NCIH211.2 DC50. It counts as cell-based. As for the experimental part:
(§1) Exemplary compounds of the invention were tested for degradation of CDK9. The compounds were tested in 10-dose DC50 duplicate mode with a 3-fold serial dilution starting at 10 μM by HiBit assay (Promega, Inc) as a direct measurement of CDK9 presence, with incubation time of 24 hours using either NCIH211 cells with endogenously tagged N-terminal CDK9-HiBit or NCIH1048 cells with endogenously tagged N-terminal CDK9-HiBit. A control compound (THAL-SNS-032, CAS 2139287-33-3) was tested in 10-dose DC50 mode with 3-fold serial dilution starting at 10 μM. Data was normalized to positive (medium only) and negative (cells with no treatment) controls and curve fits were analyzed with CDK9 as % response vs. log [compound concentration] using a 4-parameter logistic model by GraphPad software. For Table 2: A is <100, B is <1000 C is <10,000, D is >10,000 and ND is Not Determined.
For orientation: HiBiT is a short tag that completes a luciferase, so light tracks the accessible tagged protein.

The target of assay [2] is T1, CDK9. The assay is described as follows: CDK9 degradation by HiBit assay, NCIH1048 cells. It counts as cell-based. Particulars: NCIH1048 cells with endogenously tagged N-terminal CDK9-HiBit, 24 hours incubation; read-out: HiBit-NCIH1048.3 DC50. How it is done:
as §1

SMILES strings stand for the structures. Bounds are passed on as bounds.

T1 sequence (P50750 whole entry): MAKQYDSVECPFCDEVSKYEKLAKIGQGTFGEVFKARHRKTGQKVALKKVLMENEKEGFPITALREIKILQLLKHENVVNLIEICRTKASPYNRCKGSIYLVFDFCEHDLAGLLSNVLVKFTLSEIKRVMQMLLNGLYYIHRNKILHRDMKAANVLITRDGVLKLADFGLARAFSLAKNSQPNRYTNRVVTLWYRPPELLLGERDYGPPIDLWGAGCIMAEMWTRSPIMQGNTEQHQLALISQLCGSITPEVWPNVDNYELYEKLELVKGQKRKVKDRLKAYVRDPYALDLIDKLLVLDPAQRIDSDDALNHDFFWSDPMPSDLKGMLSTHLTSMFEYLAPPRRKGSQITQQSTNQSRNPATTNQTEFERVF
T1 sequence (O60563 whole entry partner): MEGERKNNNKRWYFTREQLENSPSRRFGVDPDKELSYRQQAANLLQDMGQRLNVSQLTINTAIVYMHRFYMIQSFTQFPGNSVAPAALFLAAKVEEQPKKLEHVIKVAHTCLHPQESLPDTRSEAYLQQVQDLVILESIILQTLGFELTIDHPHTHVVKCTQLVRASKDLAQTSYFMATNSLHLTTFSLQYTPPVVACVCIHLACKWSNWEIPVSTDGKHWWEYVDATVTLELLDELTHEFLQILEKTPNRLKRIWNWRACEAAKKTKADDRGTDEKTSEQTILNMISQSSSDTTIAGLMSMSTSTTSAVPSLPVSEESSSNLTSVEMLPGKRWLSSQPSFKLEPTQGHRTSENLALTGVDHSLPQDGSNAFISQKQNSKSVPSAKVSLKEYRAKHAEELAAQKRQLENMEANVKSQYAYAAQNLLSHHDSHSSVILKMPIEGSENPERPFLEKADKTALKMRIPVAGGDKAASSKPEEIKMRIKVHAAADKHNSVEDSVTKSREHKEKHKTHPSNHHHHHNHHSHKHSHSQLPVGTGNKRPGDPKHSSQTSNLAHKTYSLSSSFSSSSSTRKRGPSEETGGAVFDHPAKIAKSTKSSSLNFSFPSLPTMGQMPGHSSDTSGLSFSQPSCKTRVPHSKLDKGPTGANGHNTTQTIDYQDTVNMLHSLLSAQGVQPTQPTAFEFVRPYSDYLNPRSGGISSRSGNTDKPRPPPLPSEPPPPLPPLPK

Consider `CCC(CC)c1cc(N[C@H]2CC[C@H](NCC(=O)NCCOCCOCCOCCNc3cccc4c3C(=O)N(C3CCC(=O)NC3=O)C4=O)C2)n2nccc2n1` (stereo partly drawn) [Compound 5.0, N-[2-[2-[2-[2-[[2-(2,6-dioxo-3-piperidyl)-1,3-dioxo-isoindolin-4-yl]amino]ethoxy]ethoxy]ethoxy]ethyl]-2-[[(1S,3S)-3-[[5-(1-ethylpropyl)pyrazolo[1,5-a]pyrimidin-7-yl]amino]cyclopentyl]amino]acetamide], for which the DC50 (in general, the concentration at which degradation of the target reaches its halfway point) was less than 10 µM at CDK9 [1] and less than 1 µM at CDK9 [2].

In the case of `CCC(CC)c1cc(N[C@H]2CC[C@H](NCC(=O)NCCOCCOCCOCCNc3cccc4c3C(=O)N(C3CCC(=O)NC3=O)C4=O)C2)n2ncc(Cl)c2n1` (stereo partly drawn) [Compound 6.0, N-[2-[2-[2-[2-[[2-(2,6-dioxo-3-piperidyl)-1,3-dioxo-isoindolin-4-yl]amino]ethoxy]ethoxy]ethoxy]ethyl]-2-[[(1S,3S)-3-[[3-chloro-5-(1-ethylpropyl)pyrazolo[1,5-a]pyrimidin-7-yl]amino]cyclopentyl]amino]acetamide], the half-maximal degradation concentration (DC50) on CDK9 [1] is less than 1 µM; at CDK9 [2], less than 0.1 µM.

On to `CCC(CC)c1cc(N[C@H]2CC[C@H](NCCN3CCN(CCOCC(=O)N[C@H](C(=O)N4C[C@H](O)C[C@H]4C(=O)NCc4ccc(-c5scnc5C)cc4)C(C)(C)C)CC3)C2)n2nccc2n1` [Compound 18.0, (2S,4R)-1-[(2S)-2-[[2-[2-[4-[2-[[(1S,3S)-3-[[5-(1-ethylpropyl)pyrazolo[1,5-a]pyrimidin-7-yl]amino]cyclopentyl]amino]ethyl]piperazin-1-yl]ethoxy]acetyl]amino]-3,3-dimethyl-butanoyl]-4-hydroxy-N-[[4-(4-methylthiazol-5-yl)phenyl]methyl]pyrrolidine-2-carboxamide], for which the DC50 at CDK9 [1] was greater than 10 µM.

Turning to `CCC(CC)c1cc(N[C@H]2CC[C@H](NCCN3CCN(CCNc4cccc5c4C(=O)N(C4CCC(=O)NC4=O)C5=O)CC3)C2)n2nccc2n1` (stereo partly drawn) [Compound 19.0, 2-(2,6-dioxo-3-piperidyl)-4-[2-[4-[2-[[(1S,3S)-3-[[5-(1-ethylpropyl)pyrazolo[1,5-a]pyrimidin-7-yl]amino]cyclopentyl]amino]ethyl]piperazin-1-yl]ethylamino]isoindoline-1,3-dione], the DC50 at CDK9 [1] is less than 10 µM.

On to `CCC(CC)c1cc(N[C@H]2CC[C@H](NCC(=O)NCCCn3cc(CCOCCNc4cccc5c4C(=O)N(C4CCC(=O)NC4=O)C5=O)nn3)C2)n2nccc2n1` (stereo partly shown) [Compound 20.0], for which the half-maximal degradation concentration (DC50) on CDK9 [1] is greater than 10 µM.

For the molecule `C/C=C(\CC)c1cc(N[C@H]2CC[C@H](NCC(=O)N3CCN(CCCNc4cccc5c4C(=O)N(C4CCC(=O)NC4=O)C5=O)CC3)C2)n2nccc2n1` (stereo partly drawn) [Compound 21.0, 2-(2,6-dioxo-3-piperidyl)-4-[3-[4-[2-[[(1S,3S)-3-[[5-[(E)-1-ethylprop-1-enyl]pyrazolo[1,5-a]pyrimidin-7-yl]amino]cyclopentyl]amino]acetyl]piperazin-1-yl]propylamino]isoindoline-1,3-dione], the DC50 on CDK9 [1] and on CDK9 [2] was less than 0.1 µM in each case.

Consider `CCC(CC)c1cc(N[C@H]2CC[C@H](NCC(=O)NCCCc3cn(CCOCCNc4cccc5c4C(=O)N(C4CCC(=O)NC4=O)C5=O)nn3)C2)n2nccc2n1` (stereo partly shown) [Compound 22.0], for which the DC50 at CDK9 [1] was greater than 10 µM.

Turning to `CCC(CC)c1cc(N[C@H]2CC[C@H](NCC(=O)NCCCc3cn(CCOCCNc4cccc5c4C(=O)N(C4CCC(=O)NC4=O)C5=O)nn3)C2)n2ncc(Cl)c2n1` (stereo partly shown) [Compound 23.0], the DC50 at CDK9 [1] is less than 10 µM.

Take `CCC(CC)c1cc(N[C@H]2CC[C@H](NCC(=O)NCCCn3cc(CCOCCNc4cccc5c4C(=O)N(C4CCC(=O)NC4=O)C5=O)nn3)C2)n2ncc(Cl)c2n1` (stereo partly shown) [Compound 24.0]: at CDK9 [1], the DC50 is less than 1 µM.

As to `CCC(CC)c1cc(N[C@H]2CC[C@H](NCC(=O)NCc3cn(CCOCC(=O)N[C@H](C(=O)N4C[C@H](O)C[C@H]4C(=O)NCc4ccc(-c5scnc5C)cc4)C(C)(C)C)nn3)C2)n2nccc2n1` [Compound 25.0], at CDK9 [1], the DC50 was greater than 10 µM.

`CCC(CC)c1cc(N[C@H]2CC[C@H](NCC(=O)NCc3cn(CCOCCOCC(=O)N[C@H](C(=O)N4C[C@H](O)C[C@H]4C(=O)NCc4ccc(-c5scnc5C)cc4)C(C)(C)C)nn3)C2)n2nccc2n1` [Compound 26.0]: the DC50 at CDK9 [1] is greater than 10 µM.

As for `CCC(CC)c1cc(N[C@H]2CC[C@H](NCC(=O)NCc3cn(CCOCCOCCOCC(=O)N[C@H](C(=O)N4C[C@H](O)C[C@H]4C(=O)NCc4ccc(-c5scnc5C)cc4)C(C)(C)C)nn3)C2)n2nccc2n1` [Compound 27.0], the DC50 at CDK9 [1] is greater than 10 µM.

Turning to `CCC(CC)c1cc(N[C@H]2CC[C@H](NCC(=O)NCc3cn(CCOCCOCCOCCOCC(=O)N[C@H](C(=O)N4C[C@H](O)C[C@H]4C(=O)NCc4ccc(-c5scnc5C)cc4)C(C)(C)C)nn3)C2)n2nccc2n1` [Compound 28.0], at CDK9 [1], the DC50 was greater than 10 µM.

For `CCC(CC)c1cc(N[C@H]2CC[C@H](NCC(=O)NCc3cn(CCOCCOc4cc(-c5scnc5C)ccc4CNC(=O)[C@@H]4C[C@@H](O)CN4C(=O)[C@H](C(C)C)N4Cc5ccccc5C4=O)nn3)C2)n2nccc2n1` [Compound 29.0], the DC50 on CDK9 [1] is greater than 10 µM.

For the molecule `CCC(CC)c1cc(N[C@H]2CC[C@H](NCC(=O)NCc3cn(CCOCCOCCOCCOc4cc(-c5scnc5C)ccc4CNC(=O)[C@@H]4C[C@@H](O)CN4C(=O)[C@H](C(C)C)N4Cc5ccccc5C4=O)nn3)C2)n2nccc2n1` [Compound 31.0], at CDK9 [1], the DC50 was greater than 10 µM.

On to `CCC(CC)c1cc(N[C@H]2CC[C@H](NCC(=O)NCc3cn(CCOCCOCCOCCOCCOc4cc(-c5scnc5C)ccc4CNC(=O)[C@@H]4C[C@@H](O)CN4C(=O)[C@H](C(C)C)N4Cc5ccccc5C4=O)nn3)C2)n2nccc2n1` [Compound 32.0], for which the DC50 on CDK9 [1] is greater than 10 µM.

On to `CCC(CC)c1cc(N[C@H]2CC[C@H](NCc3cn(CCOCC(=O)N[C@H](C(=O)N4C[C@H](O)C[C@H]4C(=O)NCc4ccc(-c5scnc5C)cc4)C(C)(C)C)nn3)C2)n2nccc2n1` [Compound 33.0], for which, on CDK9 [1], the DC50 is greater than 10 µM.

Regarding `CCC(CC)c1cc(N[C@H]2CC[C@H](NCc3cn(CCOCCOCC(=O)N[C@H](C(=O)N4C[C@H](O)C[C@H]4C(=O)NCc4ccc(-c5scnc5C)cc4)C(C)(C)C)nn3)C2)n2nccc2n1` [Compound 34.0], at CDK9 [1], the DC50 is greater than 10 µM.

Take `CCC(CC)c1cc(N[C@H]2CC[C@H](NCc3cn(CCOCCOCCOCC(=O)N[C@H](C(=O)N4C[C@H](O)C[C@H]4C(=O)NCc4ccc(-c5scnc5C)cc4)C(C)(C)C)nn3)C2)n2nccc2n1` [Compound 35.0]: on CDK9 [1], the DC50 was greater than 10 µM.

`CCC(CC)c1cc(N[C@H]2CC[C@H](NCc3cn(CCOCCOCCOCCOCC(=O)N[C@H](C(=O)N4C[C@H](O)C[C@H]4C(=O)NCc4ccc(-c5scnc5C)cc4)C(C)(C)C)nn3)C2)n2nccc2n1` [Compound 36.0]: the DC50 on CDK9 [1] is greater than 10 µM.

Regarding `CCC(CC)c1cc(N[C@H]2CC[C@H](NCc3cn(CCOCCOc4cc(-c5scnc5C)ccc4CNC(=O)[C@@H]4C[C@@H](O)CN4C(=O)[C@H](C(C)C)N4Cc5ccccc5C4=O)nn3)C2)n2nccc2n1` [Compound 37.0], the 50% degradation concentration (DC50) at CDK9 [1] is greater than 10 µM.

`CCC(CC)c1cc(N[C@H]2CC[C@H](NCc3cn(CCOCCOCCOc4cc(-c5scnc5C)ccc4CNC(=O)[C@@H]4C[C@@H](O)CN4C(=O)[C@H](C(C)C)N4Cc5ccccc5C4=O)nn3)C2)n2nccc2n1` [Compound 38.0]: the DC50 on CDK9 [1] is greater than 10 µM.

As to `CCC(CC)c1cc(N[C@H]2CC[C@H](NCc3cn(CCOCCOCCOCCOc4cc(-c5scnc5C)ccc4CNC(=O)[C@@H]4C[C@@H](O)CN4C(=O)[C@H](C(C)C)N4Cc5ccccc5C4=O)nn3)C2)n2nccc2n1` [Compound 39.0], the DC50 on CDK9 [1] is greater than 10 µM.

With `CCC(CC)c1cc(N[C@H]2CC[C@H](NCc3cn(CCOCCOCCOCCOCCOc4cc(-c5scnc5C)ccc4CNC(=O)[C@@H]4C[C@@H](O)CN4C(=O)[C@H](C(C)C)N4Cc5ccccc5C4=O)nn3)C2)n2nccc2n1` [Compound 40.0], the DC50 at CDK9 [1] was greater than 10 µM.

With `CCC(CC)c1cc(N[C@H]2CC[C@H](NCC(=O)NCCCc3cn(CCOCCOCCOCCOCC(=O)N[C@H](C(=O)N4C[C@H](O)C[C@H]4C(=O)NCc4ccc(-c5scnc5C)cc4)C(C)(C)C)nn3)C2)n2ncc(Cl)c2n1` [Compound 41.0], on CDK9 [1], the DC50 was greater than 10 µM.

For `CCC(CC)c1cc(N[C@H]2CC[C@H](NCC(=O)NCCCc3cn(CCOCCOCCOCC(=O)N[C@H](C(=O)N4C[C@H](O)C[C@H]4C(=O)NCc4ccc(-c5scnc5C)cc4)C(C)(C)C)nn3)C2)n2ncc(Cl)c2n1` [Compound 42.0], the DC50 on CDK9 [1] is greater than 10 µM.

`CCC(CC)c1cc(N[C@H]2CC[C@H](NCC(=O)NCCCc3cn(CCOCC(=O)N[C@H](C(=O)N4C[C@H](O)C[C@H]4C(=O)NCc4ccc(-c5scnc5C)cc4)C(C)(C)C)nn3)C2)n2ncc(Cl)c2n1` [Compound 43.0]: the DC50 at CDK9 [1] is greater than 10 µM.

On to `CCC(CC)c1cc(N[C@H]2CC[C@H](NCC(=O)NCCCc3cn(CCOCCOCC(=O)N[C@H](C(=O)N4C[C@H](O)C[C@H]4C(=O)NCc4ccc(-c5scnc5C)cc4)C(C)(C)C)nn3)C2)n2ncc(Cl)c2n1` [Compound 44.0], for which the 50% degradation concentration (DC50) at CDK9 [1] is greater than 10 µM.

As to `CCC(CC)c1cc(N[C@H]2CC[C@H](NCC(=O)N3CCN(CCCCNc4cccc5c4C(=O)N(C4CCC(=O)NC4=O)C5=O)CC3)C2)n2ncc(Cl)c2n1` (stereo partly shown) [Compound 45.0], the DC50 on CDK9 [1] and at CDK9 [2] was less than 0.1 µM throughout.

Regarding `CCC(CC)c1cc(N[C@H]2CC[C@H](NCC(=O)N3CCN(CCNc4cccc5c4C(=O)N(C4CCC(=O)NC4=O)C5=O)CC3)C2)n2ncc(Cl)c2n1` (stereo partly shown) [Compound 49.0], the half-maximal degradation concentration (DC50) at CDK9 [1] was less than 0.1 µM.
